This note sets out measurements from patent US20080193958A1, “Method for the High-Speed Detection and/or Measurement of a Lipase or Phospholipase Activity” (CENTRE NATIONAL DE LA RECHERCHE SCIENTIFIQUE, priority 2005, published 2008).

Assay [1] concerns the target T1, human pancreatic lipase (HPL) (Homo sapiens, UniProt P16233).
T1 sequence (P16233 17-465): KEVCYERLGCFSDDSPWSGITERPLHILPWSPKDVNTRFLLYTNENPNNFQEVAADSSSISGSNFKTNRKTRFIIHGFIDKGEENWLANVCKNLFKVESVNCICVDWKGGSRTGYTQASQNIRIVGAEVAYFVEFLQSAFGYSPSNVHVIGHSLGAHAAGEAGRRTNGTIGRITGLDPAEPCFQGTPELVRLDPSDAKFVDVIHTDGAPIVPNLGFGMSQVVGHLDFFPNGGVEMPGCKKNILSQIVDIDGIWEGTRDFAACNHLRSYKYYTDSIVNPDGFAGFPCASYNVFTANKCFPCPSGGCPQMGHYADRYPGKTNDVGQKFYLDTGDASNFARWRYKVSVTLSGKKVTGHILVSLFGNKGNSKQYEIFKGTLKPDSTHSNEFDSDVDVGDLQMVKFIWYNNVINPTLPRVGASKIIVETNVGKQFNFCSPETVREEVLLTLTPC
The assay can be described thus: Inhibition of human pancreatic lipase pre-incubated with THL, coated tung oil triglyceride microplate (method A). The format is biochemical. The conditions noted are these: OD at 272 nm. On the procedure:
FIGS. 4A and 4B represent the inhibition kinetics of HPL (human pancreatic lipase) by THL (tetrahydrolipstatin). The microplate is prepared by “coating” with triglycerides (50 μg/well) extracted from tung oil which contains a high proportion of a-eleostearic acid. A solution (200 μl) of Tris buffer is added to the wells. The activity of the HPL alone, or pre-incubated with the THL, is measured by recording the optical density (method A; FIG. 4A). FIG. 4A represents the optical density (OD) at 272 nm as a function of time. The curve with the black circles corresponds to the lipase HPL alone; the curve with the black squares corresponds to the lipase HPL pre-incubated with THL in a ratio of 1:100 and the curve with the white circles corresponds to the lipase HPL pre-incubated with THL in a ratio of 1:50. The microtitration plates, with “coating” of the lipid substrate, are prepared as has been described above. A solution constituted by Tris buffer and β-cyclodextrin (3 mg/ml) is added into the wells. The optical density at 270 nm is recorded as a function of time for 5 to 10 min (see FIGS. 4A and 4B). A solution of human pancreatic lipase (HPL), alone or pre-incubated with THL (inhibitor), is injected into the wells. The enzymatic activity is then recorded as a function of time by measurement of the OD at 272 nm (method A; FIG. 4A). […]

In assay [2] the target is T1, human pancreatic lipase (HPL). The assay can be described thus: Inhibition of human pancreatic lipase by THL injected during lipolysis, coated microplate (method B). The format is biochemical. The conditions noted are these: THL 10 nM final injected during lipolysis, HPL 2 nM final. On the procedure: FIG. 4B corresponds to a different protocol (method B): after the injection of HPL (at a final concentration of 2 nM), THL is injected into the reaction medium (at a final concentration of 10 nM) during lipolysis. The microtitration plates, with “coating” of the lipid substrate, are prepared as has been described above. A solution constituted by Tris buffer and β-cyclodextrin (3 mg/ml) is added into the wells. The optical density at 270 nm is recorded as a function of time for 5 to 10 min (see FIGS. 4A and 4B). A solution of human pancreatic lipase (HPL), alone or pre-incubated with THL (inhibitor), is injected into the wells. The enzymatic activity is then recorded as a function of time by measurement of the OD at 272 nm (method A; FIG. 4A). The pre-incubation of HPL with THL, at a molar excess of 1 to 100 or of 1 to 50 for 10 min, reduces the initial lipase activity by 75% or 40% respectively (see FIG. 4A). The effect of THL on the lipase activity has also been measured by injecting THL during lipolysis (method B; FIG. 4B). The injection of THL (at a final concentration of 10 nM) reduces the activity of HPL by approximately 40%.

As for `CCCCCCCCCCC[C@@H](C[C@@H]1OC(=O)[C@H]1CCCCCC)OC(=O)[C@H](CC(C)C)NC=O` [THL, Tetrahydrolipstatin], the “reduction of the initial lipase activity” value in assay [1] (HPL pre-incubated with THL at a molar excess of 1 to 50 for 10 min) is 40%; in assay [1] (HPL pre-incubated with THL at a molar excess of 1 to 100 for 10 min), 75%. In addition, in assay [2], the “reduction of the activity of HPL” value is recorded as “approximately 40%”.
